Assay results from PMC8495455, “Discovery of a transdermally deliverable pentapeptide for activating AdipoR1 to promote hair growth” (EMBO Molecular Medicine, 2021).

Legend:
human ORS cells = test: MTT cell proliferation assay, ORS cells; format: cell-based; details: 0.5 or 5 μg/ml, 48 h, Paired t-test vs control
Source text: To design transdermally deliverable AdipoR1 agonist, we further assessed the 15‐mer sequence by cutting it into several 5‐mer peptides (Fig EV1B) (Bos & Meinardi, [2000]). Based on the fact that AdipoRs are expressed in HF cells, including dermal papilla (DP) and outer root sheath (ORS) cells (Won et al, [2012]), we performed a cell proliferation assay on human DP and ORS cells to see if there is any potential biological effect of the 5‐mer peptides on the human HF cells.
Dermal papilla cells and ORS cells were seeded into a 96‐well plate (1.0 × 10^4 cells/well) with serum‐free culture media for 24 h and then treated with each candidate 5‐mer peptide (in 0.5 μg/ml or 5 μg/ml) for 48 h. After the addition of MTT solution (20 μl, 5 mg/ml) to each well, the cells were incubated for 4 h at 37°C in the dark room and then incubated with dimethyl sulfoxide (DMSO, 200 μl) for 20 min at room temperature. The samples were assessed by measuring the absorbance at 570 nm with an absorbance microplate reader (VersaMax).

C57BL/6 (WT) mice = test: Mouse hair cycle modulation, hair cycle score, WT mice; format: in vivo; details: for Gross morphology of dorsum: topical
Source text: First, we topically applied P5 and minoxidil as a positive control (Messenger & Rundegren, [2004]) on wildtype (WT) mouse. […] Overall, the hair cycle score was higher in the P5‐treated mice than vehicle‐treated mice (Fig 4B). […] Collectively, P5 induces anagen hair cycle in vivo.
For the hair cycle modulation experiment, Adipoq ^−/− (stock #008195; JAX) (Ma et al, [2002]), Adipor1 ^−/− (Yamauchi et al, [2007]; Okada‐Iwabu et al, [2013]), or C57BL/6 (KOATECH) female mice was used (Müller‐Röver et al, [2001]). They were housed (up to four animals per cage; 23 ± 2°C, 8:00–20:00, 12 h/12 h light/dark cycle). Mice were fed a standard chow diet and provided food and water ad libitum. Mice were randomly allocated and shaved dorsally at 7.5 weeks of age. Only mice in telogen were included for the further experiments (Müller‐Röver et al, [2001]). From 8 weeks of age, the shaved dorsal area was treated with vehicle control (ethanol and polyethylene glycol, 30% and 70% v/v), P5 (0.1 mM), or minoxidil (3%) every day. The mouse hair growth score (a value from 0 to 100 based on the skin pigmentation and hair shaft density) was monitored and documented at designated days with the experimenters being blind to the conditions, following a previous study (Chai et al, [2019]). A higher score corresponds to a transition from telogen to anagen. On day 35, we obtained dorsal cutaneous tissue for histological analysis: anagen induction scores (calculated using an assigned arbitrary score; telogen = 1, anagen I–VI = 2–7) (Müller‐Röver et al, [2001]).

FGF7 protein = test: Growth factor protein quantitation in DP cell medium, FGF7; format: cell-based, human; details: for protein_FGF7: DP cell medium
Source text: (§1) Next, we investigated the downstream effects of P5 on hair growth factor genes and proteins in DP cells. […] We tested whether P5 can also increase the mRNA levels and proteins of hair growth factors in DP cells: IGF‐1, VEGF, HGF, platelet‐derived growth factor alpha (PDGFA), and fibroblast growth factor (FGF) 7, which are known to induce or maintain the anagen phase of the hair cycle (Jindo et al, [1994]; Philpott et al, [1994]; Yano et al, [2001]; Jang, [2005]; Tomita et al, [2006]; Iino et al, [2007]).
(§2) Human DP cells were grown on a 100‐mm cell culture dish to 100% confluency. After washed by PBS three times, the cells were cultured with serum‐free DMEM and treated with P5. After 48 h, the medium was collected and filtered by a […]. The filtrate was then concentrated using a centrifugal concentrator (Vivaspin 6, 10‐kDa molecular weight cutoff, centrifuged 2,600 g at 4°C for 13 min, Sartorius Stedim Biotech). The signals of each protein in the concentrated media were detected and quantified, based on the enzyme‐linked immunosorbent assay (Human Cytokine Antibody Array C2000, RayBiotech).

PDGFA mRNA = test: qRT-PCR growth factor gene expression in DP cells, PDGFA; format: cell-based, human; details: for mRNA_PDGFA: DP cells
Source text: as §1
Total RNA was isolated from P5‐treated DP cells using RNAiso Plus (#9109; TaKaRa). We used the total RNA (1 µg) for cDNA synthesis using a RevertAid First Strand cDNA Synthesis Kit (Thermo Fisher) according to the manufacturer's instructions. The mRNA expression levels were quantified on a 7500 Real‐time PCR System (Thermo Fisher) using TB Green Premix Ex Taq (TaKaRa Bio): human IGF‐1, VEGF, HGF, PDGFA, FGF7, and glyceraldehyde 3‐phosphate dehydrogenase (GAPDH) (Appendix Table S2). The relative expression levels of each gene were determined by the 2^‐ΔΔCT method.

PDGFA protein = test: Growth factor protein quantitation in DP cell medium, PDGFA; format: cell-based, human; details: for protein_PDGFA: DP cell medium
Source text: as §1, §2

[1] = P5 5μM, relative to Control = 1, replicate 1
[2] = P5 5μM, relative to Control = 1, replicate 2
[3] = P5 5μM, relative to Control = 1, replicate 3
[4] = P5 25μM, relative to Control = 1, replicate 1
[5] = P5 25μM, relative to Control = 1, replicate 2
[6] = P5 25μM, relative to Control = 1, replicate 3
[7] = P5-treated DP cells, 48 h medium, n = 3

## GLYYF [P5, GST-fused (GST-P5) in pulldown assays]
Human ORS cells
  Cell proliferative effect, ORS cells: significant cell proliferative effects
C57BL/6 (WT) mice; n = 16 mice/group, Two-way ANOVA
  Hair cycle score vs vehicle: higher
C57BL/6 (WT) mice; day 14
  Gross morphology of dorsum: obvious pigmentation and hair
C57BL/6 (WT) mice; day 35
  Gross morphology of dorsum: manifested a black hair coat
FGF7 protein; [1]
  protein_FGF7: 1.396
FGF7 protein; [2]
  protein_FGF7: 1.679
FGF7 protein; [3]
  protein_FGF7: 1.269
FGF7 protein; [4]
  protein_FGF7: 3.318
FGF7 protein; [5]
  protein_FGF7: 3.35
FGF7 protein; [6]
  protein_FGF7: 1.357
FGF7 protein; [7]
  FGF7 protein expression level: elevated
PDGFA mRNA; [1]
  mRNA_PDGFA: 1.237
PDGFA mRNA; [2]
  mRNA_PDGFA: 1.013
PDGFA mRNA; [3]
  mRNA_PDGFA: 1.221
PDGFA mRNA; P5 5μM, relative to Control = 1, replicate 4
  mRNA_PDGFA: 1.252
PDGFA mRNA; [4]
  mRNA_PDGFA: 1.5777
PDGFA mRNA; [5]
  mRNA_PDGFA: 1.8805
PDGFA mRNA; [6]
  mRNA_PDGFA: 1.22
PDGFA mRNA; P5 25μM, relative to Control = 1, replicate 4
  mRNA_PDGFA: 1.95
PDGFA mRNA; P5-treated DP cells, n = 4
  PDGFA mRNA expression: significantly increased
PDGFA protein; [1]
  protein_PDGFA: 2.032
PDGFA protein; [2]
  protein_PDGFA: 1.0925
PDGFA protein; [3]
  protein_PDGFA: 1.228
PDGFA protein; [4]
  protein_PDGFA: 3.073
PDGFA protein; [5]
  protein_PDGFA: 1.25
PDGFA protein; [6]
  protein_PDGFA: 1.481
PDGFA protein; [7]
  PDGFA protein expression level: elevated
